Here are results for one compound from article PMC12587574, “Mass balance, pharmacokinetics, metabolism, and excretion of radiolabeled acoziborole, a potential novel treatment for human African trypanosomiasis, following single microtracer oral dose to humans” (Antimicrobial Agents and Chemotherapy, 2025).

The nature of data set [1]: Plasma pharmacokinetics of acoziborole and SCYX-3109 by LC-MS/MS, phase I mass balance study. It counts as in vivo, human. How it is done: This single-center, open-label, single group, non-randomized, single oral dose study was performed at Quotient Sciences Ltd (Ruddington, Nottingham, UK). Clinical trial authorization was obtained from the Medicines and Healthcare Products Regulatory Agency (UK). Approval for administration of [^14C]-acoziborole was obtained from an expert committee sponsored by the Department of Health and Social Care in the United Kingdom (Administration of Radioactive Substances Advisory Committee [ARSAC]), and from the ARSAC-accredited Quotient Sciences’ nuclear medicine practitioner. This study was approved by a local research ethics committee in the United Kingdom and was conducted in compliance with the Declaration of Helsinki and the International Conference on Harmonisation E6 Guideline for Good Clinical Practice. The study was registered in clinicaltrials.gov (NCT04270981) and in EudraCT (reference 2019-004059-35). Written informed consent was obtained from all participants before undertaking any study-related procedures.
Participants were admitted in the evening of the day before dosing (Day −1) and were dosed in the morning of Day 1, following an overnight fast from food and drink of a minimum of 9 h. They remained fasted until approximately 4 h post-dose, at which time lunch was provided. Participants remained resident in the clinic until up to 240 h after dosing (up to Day 11). […] However, due to the COVID-19 pandemic, instead of returning for the outpatient visits, participants were requested to perform home collection of feces for a 48-h period (i.e., Days 31–33, Days 59–61, Days 89–91, and Days 119–121). Collected samples were couriered to the clinical unit at the end of each collection period. A follow-up call took place 5–10 days after the final outpatient visit to ensure the well-being of participants.
Venous blood samples were collected via an indwelling cannula or by venepuncture. A 12 mL sample was taken into heparinized glass tube and chilled on ice immediately before IP administration and 3 mL samples were taken at 1, 4, 9, 12, 24, 48, 72, 96, 120, 144, 168, and 240 h and on Days 15, 31, 59, 89, and 119 after IP administration. The first 0.5 mL of blood withdrawn via cannula was discarded. One aliquot of heparinized whole blood (1 mL) per time point was stored at or below −20°C for total radioactivity analysis. The remaining blood was centrifuged, and the harvested plasma was stored at approximately −20°C for bioanalysis or transferred (exactly 1 mL) into polypropylene tubes pre-filled with 5 µL formic acid. One plasma sample (0.5 mL) was used for metabolite profiling while another (0.5 mL) was used for parent drug and SCYX-3109 metabolite analysis. The remaining plasma was used for total radioactivity analysis.
SGS Belgium (Wavre, Belgium) performed the analysis to determine acoziborole and SCYX-3109 concentrations, using validated bioanalytical assays with liquid chromatography with tandem mass spectrometry (LC-MS/MS) with a Supelco Ascentis Express C8, 2.7 µm, 50 × 2.1 mm I.D. separation column. In plasma, the lower limit of quantification (LLOQ) was 25 ng/mL for acoziborole and 10 ng/mL for SCYX-3109. In urine, the LLOQ was 10 ng/mL for both acoziborole and SCYX-3109.
PK parameters were calculated based on actual sampling times using standard non-compartmental analysis and WinNonlin version 8.1 software (Certara, Princeton, NJ, USA).
The SCYX-3109 to parent ratios were calculated based on Cmax and AUC0–∞.

The nature of data set [2]: Urinary excretion / renal clearance of acoziborole and SCYX-3109 by LC-MS/MS. It counts as in vivo. To be noted: male, human, urine and plasma; CumAe0–240h/AUC0–240h; mean ± SD; 960 mg single oral dose of acoziborole; read-out: renal clearance CLr0–240h (converted). As for the experimental part: Urine samples were collected before IP administration (single urine void) and then during intervals of 0–6, 6–12, 12–24, 24–48, 48–72, 72–96, 96–120, 120–168, 168–192, 192–216, and 216–240 h post-dose and for the additional 48-h collection period starting on Day 15 post-dose, that is, 336–384 h. Samples were acidified with citric acid to avoid acoziborole degradation and were refrigerated until the end of the block collection periods. The total weight and volume of urine were then recorded. At the end of each collection period, two aliquots of acidified urine (20 mL) were taken from the sample and stored in polypropylene tubes at −20°C until further analysis for total radioactivity. Two aliquots of 1 mL acidified urine were collected into tubes containing bovine serum albumin in aqueous solution (to avoid non-specific adsorption of acoziborole) and NaCl for acoziborole and SCYX-3109 assays. […]
SGS Belgium (Wavre, Belgium) performed the analysis to determine acoziborole and SCYX-3109 concentrations, using validated bioanalytical assays with liquid chromatography with tandem mass spectrometry (LC-MS/MS) with a Supelco Ascentis Express C8, 2.7 µm, 50 × 2.1 mm I.D. separation column. In plasma, the lower limit of quantification (LLOQ) was 25 ng/mL for acoziborole and 10 ng/mL for SCYX-3109. […]

The nature of data set [3]: Metabolite profiling and identification in pools of plasma, urine and feces (UPLC-MS, AMS). It counts as in vivo, human. How it is done:
Individual pools of plasma (0–336 h, including time points at 1, 4, 9, 12, 24, 48, 72, 96, 120, 168, 240, and 336 h), urine (0–240 h, including time intervals 0–6, 6–12, 12–24, 24–48, 48–72, 72–96, 96–120, 120–168, 168–192, 192–216, and 216–240 h) and feces homogenates (0–240 h, including time intervals 0–6, 6–12, 12–24, 24–48, 48–72, 72–96, 96–120, 120–168, and 168–240 h) were prepared; for plasma this was done according to the method described in reference and for feces by using equal percentages per time point based on total volume. Subsequently, a pool per matrix was prepared by mixing equal volumes of each participant pool. In addition, a plasma pre-dose pool was prepared by mixing equal volumes of each pre-dose sample. For urine and feces, TNO blank pool was used to generate a pre-dose sample. Samples were stored below −18°C. Samples (100 µL plasma, 250 µL urine, and 200 mg feces) were pre-treated and injected onto an ultra-high performance liquid chromatography (UPLC)-MS system (Acquity UPLC system [Waters] coupled to a Q-Exactive [Thermo]; Acquity HSS C18 VanGuard 5 mm × 2.1 mm, 1.8 µm [Waters] pre-column and Acquity HSS C18 100 mm × 2.1 mm, 1.8 µm d.p. [Waters]). Fractions were collected and analyzed off-line by AMS. AMS analysis was performed on an AMS system, consisting of an elemental analyzer, a double gas interface, and a 1 MV multi-element AMS. All fecal homogenate sample analyzes were performed in triplicate. Plasma pre-dose and TNO blank urine and feces pools were used for background correction. The UPLC method qualification included determination of retention time stability and extraction recovery. Metabolites were tentatively assigned to fractions in which activity greater than the baseline was observed, based on retention time and structural information provided by DNDi. Presence of the metabolite was confirmed by accurate mass data from high-resolution mass spectrometric analysis.

On the set-up of data set [4]: method as in PMID 36763327. As to conditions: human, after acoziborole; cited from earlier work.
On the set-up of data set [5]: method as in PMID 21707314. To be noted: cited from earlier work.

Where two headings read alike, the source gives them in different places.

In the case of `CC(C)(O)c1ccc(NC(=O)c2ccc(F)cc2C(F)(F)F)cc1O` [SCYX-3109], the AUC(0-t) in data set [1] (human, plasma, po, 960 mg, 960 mg single oral dose of acoziborole, N = 6, mean ± SD, read-out: AUC0–240h in plasma) was determined as 4370 ± 1020 ng·h/mL. The AUC(0-t) in data set [1] (human, plasma, po, 960 mg, 960 mg single oral dose of acoziborole, N = 6, mean ± SD, read-out: AUC0–t in plasma) was determined as 3730 ± 2320 ng·h/mL. Also, the Tmax in data set [1] (human, plasma, po, 960 mg, 960 mg single oral dose of acoziborole, N = 6, mean ± SD, read-out: tmax in plasma) stood at 76.1 ± 28 h. Besides, the Cmax in data set [1] (male, human, plasma, 960 mg single oral dose of acoziborole, healthy males, N = 6, mean ± SD) turned out to be 30.5 ± 10.7 ng/mL. Further, the “plasma level relative to acoziborole, AUC0–240h ratio” value in data set [1] (over the 240-h period, 960 mg single oral dose) is on record as 0.2%. Also, the CL renal in data set [2] is 0.6 mL/min. Further, in data set [3] (0–240 h pools), the “proportion of the dose excreted, urine and feces combined” value is on record as 12.3%. Moreover, in data set [3] (feces homogenates 0–240 h), the “abundance relative to dose, feces” value was 12.3% and the “relative abundance in radiochromatogram, feces homogenates pool” value was 24.2%. Also, the “relative abundance in radiochromatogram (share of total radioactivity), plasma pool” value in data set [3] (plasma pool 0–336 h, 960 mg single oral [14C]-acoziborole) is listed as “could not be detected”. Further, the “plasma concentrations at all time points” value in data set [4] is “very low”. In addition, in data set [5], the “activity of the metabolite” value is “inactive”.

For orientation: Tmax means the time from dosing to the highest level. By Cmax is commonly meant the highest concentration seen after dosing.
